Laboratory results reported in patent publication US20220340629A1, “Myosin Derived Peptides and Related Compounds with Anticoagulant Activities” (THE SCRIPPS RESEARCH INSTITUTE, priority 0001, published 2022).
Starred links: 1 amine or outer side, 2 acyl side, 3 side chain; linkers in the order of their positions; H or OH if unused. Positions of bridges follow the written chain, without caps; N, C: chain ends. Non-standard residues stand in square brackets, D forms with d. Residues, ends and D or L forms follow the SMILES beside them. Suc = O=C(CCC(=O)[*:2])[*:1]; Nle = CCCC[C@H](N)C(=O)O

Test system: thrombin generation in human platelet poor plasma with skeletal muscle myosin
Assay: Assay 2A: thrombin generation, recalcification of human platelet poor plasma + myosin
Type: biochemical
Details: human platelet poor plasma 30%, myosin 50 nM, CaCl2 10 mmol/L; read-out: 2A (recalcification +myosin)
Description: Activities of the various peptides and derivative compounds were also examined via assays using recalcification of human plasma. [One of] these assay format (2A) involves monitoring thrombin generation in platelet poor plasma (PPP). Specifically, pooled normal human platelet poor plasma (PPP) (obtained from George King Bio Medical Inc., Overland Park, Kans.) (30%) was incubated with skeletal muscle myosin at 50 nM in the presence of peptide in DMSO or DMSO alone for 5 min at 37° C. Then, fluorogenic thrombin substrate solution (Z-Gly-Gly-Arg-AMC) (I-1140) with CaCl2 (10 mmol/L final) alone was added to the reaction mixture (total 110 μl) to initiate coagulation. Thrombin generation was followed continuously for 25 min using SPECTRAmax GEMINI XS fluorometer (Molecular Devices, Sunnyvale, Calif.) with excitation and emission wavelengths set at 360 and 460 nm, respectively. The first derivative of fluorescence versus time was used to produce thrombin generation curves with the correction for substrate consumption and inner filter effect. For this assay 96 well plate (total 110 μL) or 384 well plates (total 30 μL) were used.
Activities obtained from Assay 2A (recalcification of human plasma in the presence of myosin) were used to rank the various peptides listed in Table 3. As noted above, this assay monitors recalcification of plasma to stimulate thrombin generation. In this assay, potency of the compounds was determined as the peptide concentration for 50% inhibition of thrombin generation, defined as “IC50”.

Row | SMILES | IC50
1 | CC[C@H](C)[C@H](NC(=O)[C@H](C)NC(=O)[C@H](CCC(=O)O)NC(=O)[C@H](CCCNC(=N)N)NC(=O)[C@H](CCCNC(=N)N)NC(=O)[C@H](CCC(=O)O)NC(=O)[C@@H](NC(=O)[C@H](CCSC)NC(=O)[C@H](CCCNC(=N)N)NC(=O)[C@H](CCC(N)=O)NC(=O)[C@H](Cc1ccc(O)cc1)NC(=O)[C@H](CCC(=O)O)NC(=O)[C@@H](NC(=O)[C@H](CCCNC(=N)N)NC(=O)[C@H](C)NC(=O)[C@H](CC(C)C)NC(=O)[C@H](Cc1ccccc1)NC(=O)CNC(=O)[C@H](CCCNC(=N)N)NC(=O)[C@H](CS)NC(=O)[C@H](CCCNC(=N)N)NC(=O)[C@H](C)N)C(C)C)C(C)C)C(=O)N[C@@H](Cc1ccccc1)C(=O)N[C@@H](CS)C(=O)N[C@H](C(=O)N[C@@H](CCC(N)=O)C(=O)N[C@H]1CCCCNC(=O)CCC(=O)NCCCC[C@@H](C(=O)N[C@H](C(=O)N[C@@H](CCCCN)C(=O)N[C@@H](Cc2c[nH]cn2)C(=O)N[C@@H](Cc2c[nH]c3ccccc23)C(=O)N2CCC[C@H]2C(=O)N[C@@H](Cc2c[nH]c3ccccc23)C(N)=O)C(C)C)NC(=O)[C@H](CCSC)NC(=O)[C@H](Cc2ccccc2)NC(=O)[C@H](CO)NC(=O)[C@H](CCCNC(=N)N)NC(=O)[C@H]([C@@H](C)CC)NC(=O)[C@H](CC(N)=O)NC1=O)[C@@H](C)CC [HC077] (H-ARCRGFLARVEYQRMVERREAIFCIQKNIRSFMKVKHWPW-NH2; linker 27-34 via Suc; N-terminus and C-terminus assumed) | 15 µM
2 | CCCC[C@H](NC(=O)[C@H](Cc1ccccc1)NC(=O)[C@H](CO)NC(=O)[C@H](CCCNC(=N)N)NC(=O)[C@@H](NC(=O)[C@H](CC(N)=O)NC(=O)[C@H](Cc1ccc(O)cc1)NC(=O)[C@H](CCC(N)=O)NC(=O)[C@@H](NC(=O)[C@H](CS)NC(=O)[C@H](Cc1ccccc1)NC(=O)[C@@H](NC(=O)[C@H](C)NC(=O)[C@H](CCC(=O)O)NC(=O)[C@H](CCCNC(=N)N)NC(=O)[C@H](CCCNC(=N)N)NC(=O)[C@H](CCC(=O)O)NC(=O)[C@@H](NC(=O)[C@H](CCCC)NC(=O)[C@H](CCCNC(=N)N)NC(=O)[C@H](CCC(N)=O)NC(=O)[C@H](Cc1ccc(O)cc1)NC(=O)[C@H](CCC(=O)O)NC(=O)[C@@H](NC(=O)[C@H](CCCNC(=N)N)NC(=O)[C@H](C)NC(=O)[C@H](CC(C)C)NC(=O)[C@H](Cc1ccccc1)NC(=O)CNC(=O)[C@H](CCCNC(=N)N)NC(=O)[C@H](CS)NC(=O)[C@H](CCCNC(=N)N)NC(=O)[C@H](C)N)C(C)C)C(C)C)[C@@H](C)CC)[C@@H](C)CC)[C@@H](C)CC)C(=O)N[C@@H](CC(N)=O)C(=O)N[C@H](C(=O)N[C@@H](CCCCN)C(=O)N[C@@H](Cc1c[nH]cn1)C(=O)N[C@@H](Cc1c[nH]c2ccccc12)C(=O)N1CCC[C@H]1C(=O)N[C@@H](Cc1c[nH]c2ccccc12)C(N)=O)C(C)C [HC095] (H-ARCRGFLARVEYQR[Nle]VERREAIFCIQYNIRSF[Nle]NVKHWPW-NH2; N-terminus and C-terminus assumed) | 10 µM
3 | CC[C@H](C)[C@H](NC(=O)[C@H](C)N)C(=O)N[C@@H](Cc1ccccc1)C(=O)N[C@@H](CS)C(=O)N[C@H](C(=O)N[C@@H](CCC(N)=O)C(=O)N[C@@H](Cc1ccc(O)cc1)C(=O)N[C@@H](CC(N)=O)C(=O)N[C@H](C(=O)N[C@@H](CCCNC(=N)N)C(=O)N[C@@H](CO)C(=O)N[C@@H](Cc1ccccc1)C(=O)N[C@@H](CCSC)C(=O)N[C@@H](CC(N)=O)C(=O)N[C@H](C(=O)N[C@@H](CCCCN)C(=O)N[C@@H](Cc1c[nH]cn1)C(=O)N[C@@H](Cc1c[nH]c2ccccc12)C(=O)N1CCC[C@H]1C(=O)N[C@@H](Cc1c[nH]c2ccccc12)C(=O)N[C@@H](CCSC)C(=O)N[C@@H](CCCCN)C(=O)N[C@@H](CC(C)C)C(=O)N[C@@H](Cc1ccccc1)C(=O)N[C@@H](Cc1ccccc1)C(=O)N[C@@H](CCCCN)C(=O)N[C@H](C(=O)N[C@@H](CCCCN)C(N)=O)[C@@H](C)CC)C(C)C)[C@@H](C)CC)[C@@H](C)CC [HC101] (H-AIFCIQYNIRSFMNVKHWPWMKLFFKIK-NH2; N-terminus and C-terminus assumed) | 9 µM
4 | CC[C@H](C)[C@H](NC(=O)[C@H](C)NC(=O)[C@H](CCC(=O)O)NC(=O)[C@H](CCCNC(=N)N)NC(=O)[C@H](CCCNC(=N)N)NC(=O)[C@H](CCC(=O)O)NC(=O)[C@@H]1CCCCNC(=O)CCC(=O)NCCCC[C@@H]2NC(=O)[C@H](C)NC(=O)[C@H](CC(C)C)NC(=O)[C@H](Cc3ccccc3)NC(=O)CNC(=O)[C@H](CCCNC(=N)N)NC(=O)[C@@H](NC(=O)[C@H](CCCNC(=N)N)NC(=O)[C@H](C)N)CCCCNC(=O)CCC(=O)NCCCC[C@H](NC2=O)C(=O)N[C@@H](CCC(=O)O)C(=O)N[C@@H](Cc2ccc(O)cc2)C(=O)N[C@@H](CCC(N)=O)C(=O)N[C@@H](CCCNC(=N)N)C(=O)N[C@@H](CCSC)C(=O)N1)C(=O)N[C@@H](Cc1ccccc1)C(=O)N[C@@H](CS)C(=O)N[C@H](C(=O)N[C@@H](CCC(N)=O)C(=O)N[C@@H](Cc1ccc(O)cc1)C(=O)N[C@@H](CC(N)=O)C(=O)N[C@H](C(=O)N[C@@H](CCCNC(=N)N)C(=O)N[C@@H](CO)C(=O)N[C@@H](Cc1ccccc1)C(=O)N[C@@H](CCSC)C(=O)N[C@@H](CC(N)=O)C(=O)N[C@H](C(=O)N[C@@H](CCCCN)C(=O)N[C@@H](Cc1c[nH]cn1)C(=O)N[C@@H](Cc1c[nH]c2ccccc12)C(=O)N1CCC[C@H]1C(=O)N[C@@H](Cc1c[nH]c2ccccc12)C(N)=O)C(C)C)[C@@H](C)CC)[C@@H](C)CC [HC153] (H-ARKRGFLAKKEYQRMKERREAIFCIQYNIRSFMNVKHWPW-NH2; linker 3-10, 9-16 via Suc (inferred); N-terminus and C-terminus assumed) | 11 µM
5 | CC[C@H](C)[C@H](NC(=O)[C@H](C)NC(=O)[C@H](CCC(=O)O)NC(=O)[C@H](CCCNC(=N)N)NC(=O)[C@H](CCCNC(=N)N)NC(=O)[C@H](CCC(=O)O)NC(=O)[C@@H]1CCCCNC(=O)CCC(=O)NCCCC[C@@H]2NC(=O)[C@H](C)NC(=O)[C@H](CC(C)C)NC(=O)[C@H](Cc3ccccc3)NC(=O)[C@@H](NC(=O)[C@H](CCCNC(=N)N)NC(=O)[C@H](CS)NC(=O)[C@H](CCCNC(=N)N)NC(=O)[C@H](C)N)CCCCNC(=O)CCC(=O)NCCCC[C@H](NC(=O)[C@H](CCC(=O)O)NC(=O)[C@H](C(C)C)NC2=O)C(=O)N[C@@H](CCC(N)=O)C(=O)N[C@@H](CCCNC(=N)N)C(=O)N[C@@H](CCSC)C(=O)N1)C(=O)N[C@@H](Cc1ccccc1)C(=O)N[C@@H](CS)C(=O)N[C@H](C(=O)N[C@@H](CCC(N)=O)C(=O)N[C@@H](Cc1ccc(O)cc1)C(=O)N[C@@H](CC(N)=O)C(=O)N[C@H](C(=O)N[C@@H](CCCNC(=N)N)C(=O)N[C@@H](CO)C(=O)N[C@@H](Cc1ccccc1)C(=O)N[C@@H](CCSC)C(=O)N[C@@H](CC(N)=O)C(=O)N[C@H](C(=O)N[C@@H](CCCCN)C(=O)N[C@@H](Cc1c[nH]cn1)C(=O)N[C@@H](Cc1c[nH]c2ccccc12)C(=O)N1CCC[C@H]1C(=O)N[C@@H](Cc1c[nH]c2ccccc12)C(N)=O)C(C)C)[C@@H](C)CC)[C@@H](C)CC [HC154] (H-ARCRKFLAKVEKQRMKERREAIFCIQYNIRSFMNVKHWPW-NH2; linker 5-12, 9-16 via Suc (inferred); N-terminus and C-terminus assumed) | 9.4 µM
6 | CC[C@H](C)[C@H](NC(=O)[C@H](C)NC(=O)[C@H](CCC(=O)O)NC(=O)[C@H](CCCNC(=N)N)NC(=O)[C@H](CCCNC(=N)N)NC(=O)[C@H](CCC(=O)O)NC(=O)[C@@H]1CCCCNC(=O)CCC(=O)NCCCC[C@@H]2NC(=O)[C@H](C)NC(=O)[C@H](CC(C)C)NC(=O)[C@@H](NC(=O)CNC(=O)[C@H](CCCNC(=N)N)NC(=O)[C@H](CS)NC(=O)[C@H](CCCNC(=N)N)NC(=O)[C@H](C)N)CCCCNC(=O)CCC(=O)NCCCC[C@H](NC(=O)[C@H](Cc3ccc(O)cc3)NC(=O)[C@H](CCC(=O)O)NC(=O)[C@H](C(C)C)NC2=O)C(=O)N[C@@H](CCCNC(=N)N)C(=O)N[C@@H](CCSC)C(=O)N1)C(=O)N[C@@H](Cc1ccccc1)C(=O)N[C@@H](CS)C(=O)N[C@H](C(=O)N[C@@H](CCC(N)=O)C(=O)N[C@@H](Cc1ccc(O)cc1)C(=O)N[C@@H](CC(N)=O)C(=O)N[C@H](C(=O)N[C@@H](CCCNC(=N)N)C(=O)N[C@@H](CO)C(=O)N[C@@H](Cc1ccccc1)C(=O)N[C@@H](CCSC)C(=O)N[C@@H](CC(N)=O)C(=O)N[C@H](C(=O)N[C@@H](CCCCN)C(=O)N[C@@H](Cc1c[nH]cn1)C(=O)N[C@@H](Cc1c[nH]c2ccccc12)C(=O)N1CCC[C@H]1C(=O)N[C@@H](Cc1c[nH]c2ccccc12)C(N)=O)C(C)C)[C@@H](C)CC)[C@@H](C)CC [HC155] (H-ARCRGKLAKVEYKRMKERREAIFCIQYNIRSFMNVKHWPW-NH2; linker 6-13, 9-16 via Suc (inferred); N-terminus and C-terminus assumed) | 9.5 µM
